Results as given in PMC10510511, “Dose–Response Activity-Based DNA-Encoded Library Screening” (ACS Medicinal Chemistry Letters, 2023).
“Also recorded” adds a separate entry of the source.

Experiments:
factor Xa (FXa) [1] = biological target: T1, factor Xa (FXa) (Homo sapiens, UniProt P00742); assay: Biochemical assay for FXa hit validation (fluorogenic 5-FAM/QXL-520 substrate, microplate); details: for Maximum inhibition (%) / IC50: FXa; for IC50: 30 min preincubation, 25 °C, 4 parameter logistic fit
T1 construct: purchased R&D Systems, Minneapolis, MN
T1 sequence (P00742 235-488 limits assumed): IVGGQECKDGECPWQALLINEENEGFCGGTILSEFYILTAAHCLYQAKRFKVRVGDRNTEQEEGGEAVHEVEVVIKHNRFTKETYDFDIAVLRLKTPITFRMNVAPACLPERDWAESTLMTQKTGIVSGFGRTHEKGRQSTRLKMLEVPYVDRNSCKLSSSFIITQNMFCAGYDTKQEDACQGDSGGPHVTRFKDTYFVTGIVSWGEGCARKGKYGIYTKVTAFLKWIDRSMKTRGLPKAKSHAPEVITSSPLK
T1 sequence (P00742 41-179 partner limits assumed): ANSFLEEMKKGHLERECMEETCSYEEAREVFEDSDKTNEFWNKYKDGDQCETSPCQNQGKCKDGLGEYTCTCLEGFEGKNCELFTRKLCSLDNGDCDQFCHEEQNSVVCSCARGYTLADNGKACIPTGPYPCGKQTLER
Method: Biochemical Assay for FXa Hit Validation […]
plate assay buffer). Compound dilutions (2.5 µL) were added to FXa (90 nM, 5 µL) in 384-well black-bottom microplates (Corning Scientific, Corning, NY) in triplicate and […]
(§1) incubated (30 min, 25 °C). […]
added and reaction progress was monitored immediately (λex = 483 nm,λem = 530 nm, 25 °C, CLARIOStar Plus, BMG LABTECH, Ortenberg, Germany). The percent activity was taken as the slope of the fluorescence increase over time (1–10 min) relative to that of a vehicle control. IC50 values were determined by fitting the data to a 4 parameter logistic model using nonlinear regression. […]

factor Xa (FXa) [2] = biological target: T1, factor Xa (FXa); assay: FXa dose-response activity-based DEL screening in droplets, hit replicate count by sequencing; format: biochemical; details: for k-class (30% UV): FXa screen at 30% UV intensity; for k-class (100% UV): FXa screen at 100% UV intensity
Method: FXa Library Screening in Droplets
DEL screening for FXa inhibitors was performed in droplets as previously described,4,8 with modifications. After ligating the closing primer, the library was prepared for droplet screening by exchanging into assay buffer, filtering through a 20 µm Celtrics filter, filter-ing through a previously described microfluidic device,4 and counting a dilution with a hemocytometer to determine bead density. AQ1 input contained fluorogenic FXa peptide substrate (6 µM), internal standard 5(6)-TAMRA (2 µM), DEL beads (∼1500 beads/µL), and a PTFE-encapsulated magnet (to agitate beads periodically; 3 mm dia., V&P Scientific, Inc., San Diego, CA) in FXa droplet assay buffer. AQ2 contained FXa (3.8 ng/µL,∼90 nM) in FXa droplet assay buffer.
OIL2 and OIL3 were neat Novec™ 7500.
UV dosing was delivered through a custom fiber optic cable7 controlled through Labview software (National Instruments, Austin, TX). Slight modifications were made to the pre-viously described confocal LIF detection system and LabVIEW code. 3,4 Briefly, droplet […]
(§2) fluorescence emission was detected by photon counting PMTs (H7828, Hamamatsu, Mid-dlesex, NJ) using a custom two-channel (520 and 570 nm) confocal LIF microscope with […]
(§3) code written in house collected signal data and determines droplet sorting decisions. The […]
(§4) Instruments), and binned into packets of counts (∆t = 0.1 ms). Median-filter smoothing (window width = 3) was applied to the signal in real-time. Droplet signal regions were identified by the 570-nm channel signal (countsn> 200) and 520-nm channel signal maxima (max = countsn−1 when countsn< countsn−1).
A dynamic sorting threshold was calculated in real-time to identify “hit droplets” with reduced 520-nm channel fluorescence. The dynamic threshold was calculated as µ - 4.5σ, where µ andσ were the mean and standard deviation of the last 1000 droplets’ fluorescence values, respectively. Hit droplets were excluded from the fluorescence values used to calculate population mean and standard deviation. […]
(§5) DNA sequence pattern matching, aggregation by bead barcode, and unique molecular identifier (UMI) filtering were previously described. 3–5 Sequences with a UMI count≤ 5 were discarded. UV doses associated with hit sequences were filtered using the sequencing barcode (Table S5) introduced during library amplification. Of the remaining sequences, compound replicates (k class) were determined by taking the sum of the sequences having the same synthesis encoding region but distinct bead barcodes.

autotaxin (ATX) [3] = biological target: T2, autotaxin (ATX) (Homo sapiens, UniProt Q13822); assay: Biochemical assay for ATX hit validation (FS-3 substrate, microplate); details: for Maximum inhibition (%) / IC50: ATX; for IC50: relative IC50, 30 min preincubation, 25 °C, 4 parameter logistic fit
T2 construct: purchased Echelon Biosciences, Salt Lake City, UT
Method: (§6) 384-well black-bottom microplates (Corning Scientific, Corning, NY) in triplicate and […]
as §1
Biochemical Assay for ATX Hit Validation […]
plate assay buffer). Compound dilutions (2.5 µL) were added to ATX (100 nM, 5 µL) in 384-well black-bottom microplates (Corning Scientific, Corning, NY) in triplicate and incubated (30 min, 25 °C). FS-3 (20 µM, 2.5 µL) was added and reaction progress was monitored immediately (λex = 483 nm, λem = 530 nm, 25 °C, CLARIOStar Plus, BMG LABTECH). The percent activity was taken as the slope of the fluorescence increase over […]
time (1–10 min) relative to that of a vehicle control. IC50 values were determined by fitting the data to a 4 parameter logistic model using nonlinear regression. […]
Vmax = [S]KM(1 + [I]Ki ) + [S]. […]
v = Vmax(1 + [I]/Ki)[S]. (3)
Rearranging to express relative velocity (v/Vmax):
Vmax = [S](KM + [S])(1 + [I]/Ki). (4)

autotaxin (ATX) [4] = biological target: T2, autotaxin (ATX); assay: ATX dose-response activity-based DEL screening in droplets, hit replicate count by sequencing; format: biochemical; details: for k-class (20% UV): ATX screen at 20% UV intensity; for k-class (100% UV): ATX screen at 100% UV intensity
Excerpt: as §2, §3, §4
A dynamic sorting threshold was calculated in real-time to identify “hit droplets” with reduced 520-nm channel fluorescence. The dynamic threshold was calculated as µ - 4.5σ, where µ andσ were the mean and standard deviation of the last 1000 droplets’ fluorescence values, respectively. Hit droplets were excluded from the fluorescence values used to calculate population mean and standard deviation. When a hit droplet was detected (droplet fluorescence< µ – 4.5σ counts), LabVIEW output a TTL pulse from the DAQ […]
triggering a square wave pulse output (0–7.5 V, 10 kHz, 300 cycles) that was amplified […]
NY) and conducted through luer-lok needle-fitted and microbore tygon tubing filled with liquid metal (gallium:indium:tin alloy 62:22:16 (w%), Alfa Aeser) into a microfabricated […]
ATX Library Screening in Droplets
The ATX droplet screening assay was performed similarly to the FXa assay, but with ATX assay reagents. This was a modification of previously described protocols.4 AQ1 input contained fluorogenic ATX substrate FS-3 9 (10 µM), internal standard 5(6)-TAMRA (5 µM), […]
excised, eluted (C&S buffer, 100 µL, 100 rpm, ON), and pooled for Illumina sequencing at the UCI genomics high throughput facility (MiSeq v2 Nano or MiSeq v2 Micro, paired end).
as §5, with “barcodes. […]” for “barcodes.”
as §6, §1

FXa = test system: FXa; parameters: method as in PMID 16161994; details: cited from earlier work

Structure (SMILES)	Maximum inhibition (%) (factor Xa (FXa) [1])	IC50 (factor Xa (FXa) [1]) [µM]	FXa inhibition (in words) (factor Xa (FXa) [1]; at 100 μM)	k-class (30% UV) (factor Xa (FXa) [2])	k-class (100% UV) (factor Xa (FXa) [2])	Maximum inhibition (%) (autotaxin (ATX) [3])	IC50 (autotaxin (ATX) [3]) [µM]	k-class (20% UV) (autotaxin (ATX) [4])	k-class (100% UV) (autotaxin (ATX) [4])	ATX inhibition (in words) (autotaxin (ATX) [3])	IC50 (FXa) [µM]
NC(=O)[C@@H]1CCCN1C1CCN(C(=O)c2cn3cc(Cl)ccc3n2)CC1 [Hit 3a]	28	> 300	weakly inhibited FXa	8	9						
NC(=O)COc1ccc2c(c1)CCc1ccccc1C2NC(=O)c1ccc(Cl)o1 (stereo not drawn) [Hit 13b]						26	6 ± 3	0	3		
NC(=O)c1cccc(CNC(=O)c2ccc(Cl)s2)c1 [Hit 5a]	58	19 ± 2		10	8						
NC(=O)c1cccc(CNC(=O)c2csc(Cc3ccccc3)n2)c1 [Hit 12a]						94	28 ± 14	4	8	least potent	
NC(=O)c1cccc(CNC(=O)[C@@H]2C[C@H]2c2ccccc2)c1 [Hit 12b]							> 300	2	3	false positive; also recorded: did not inhibit ATX	
NC(=O)Cn1c(=O)n(C2CCN(C(=O)c3cnn(CC4CCCCC4)c3)CC2)c2ccccc21 [Hit 16b]						96	13 ± 2	4	2	inhibited ATX fully	
NC(=O)[C@@H](Cc1csc2ccccc12)NC(=O)c1ccc(N2CCCC2=O)cc1 [Hit 1a]	93	4.2 ± 0.1		14	4						
Cc1cccn2cc(C(=O)NC3c4ccccc4CCc4cc(OCC(N)=O)ccc43)nc12 (stereo not drawn) [Hit 13a]						57	6 ± 1	0	3		
NC(=O)c1ccc2c(c1)CCN(C(=O)c1cnn(CC3CCCCC3)c1)C2 [Hit 17a]						91	1 ± 0.3	7	6	inhibited ATX fully	
NC(=O)[C@@H](Cc1c[nH]c2ccccc12)NC(=O)c1ccc(N2CCCC2=O)cc1 [Hit 2a]	95	9 ± 0.3		9	6						
NC(=O)[C@@H](Cc1csc2ccccc12)NC(=O)c1ccc(N2CCOCC2)cc1 [Hit 1b]	85	7.4 ± 0.3		9	4						
NC(=O)Cn1c(=O)n(C2CCN(C(=O)c3ccc(Cl)cc3C(F)(F)F)CC2)c2ccccc21 [Hit 16a]						91	7 ± 2	6	4	inhibited ATX fully	
